Measured values taken from US20240325398A1, “COMBINATION THERAPIES” (Infinity Pharmaceuticals, Inc., priority 2014, published 2024).

What was measured:
HBL-1 = assay: Combination study, ATPLite 72 h, dose matrix (Synergy Score, CI50); settings: combination with Compound 1, 72 h
SU-DHL-10-epst = assay: as above; settings: combination with Compound 1, 72 h
DOHH-2 = assay: as above; settings: combination with Compound 1, 72 h
Jeko-1 = assay: as above; settings: combination with Compound 1
OCI-Ly7 = assay: as above; settings: combination with Compound 1, 72 h
U-2932 = assay: as above; settings: combination with Compound 1, 72 h
KARPAS-422 = assay: as above; settings: combination with Compound 1, 72 h
OCI-Ly3 = assay: as above; settings: combination with Compound 1; OCI-Ly3; 72 h
RL = assay: as above; settings: combination with Compound 1, 72 h
TMD8 = assay: as above; settings: combination with Compound 1
OMP-2 = assay: as above; settings: combination with Compound 1; OPM-2
[1] = as above; settings: combination with Compound 1; OPM-2
Farage = assay: as above; settings: combination with Compound 1
NCI-H929 = assay: as above; settings: combination with Compound 1
HH = assay: as above; format: cell-based; settings: combination with Compound 1
Method: The method is described as follows.
Additive effect is CI=1.0. […] Antagonistic effect is CI>1.0.
The Synergy Score is calculated as: […]

Mino = assay: as above; settings: combination with Compound 1
KARPAS-299 = assay: as above; settings: combination with Compound 1
WSU-NHL = assay: as above; settings: combination with Compound 1, 72 h
RPMI-8226 = assay: as above; settings: combination with Compound 1
SU-DHL-4-epst = assay: as above; settings: combination with Compound 1, 72 h
GRANTA-519 = assay: as above; settings: combination with Compound 1

Compound: CO[C@H]1C[C@@H]2CC[C@@H](C)[C@@](O)(O2)C(=O)C(=O)N2CCCC[C@H]2C(=O)O[C@H]([C@H](C)C[C@@H]2CC[C@@H](OCCO)[C@H](OC)C2)CC(=O)[C@H](C)/C=C(\C)[C@@H](O)[C@@H](OC)C(=O)[C@H](C)C[C@H](C)/C=C/C=C/C=C/1C [everolimus, dihydroxy-12-[(2R)-1-[(1S,3R,4R)-4-(2-hydroxyethoxy)-3-methoxycyclohexyl]propan-2-yl]-19,30-dimethoxy-15,17,21,23,29,35-hexamethyl-11,36-dioxa-4-azatricyclo[30.3.1.0]hexatriaconta-16,24,26,28-tetraene-2,3,10,14,20-pentone]
- CI50 growth inhibition (HBL-1): T (T=0.5 to <0.7)
- CI50 inhibition (HBL-1): U (U=0.7 to <1)
- Synergy Score growth inhibition (HBL-1): A2 (A2=1 to <3)
- Synergy Score inhibition (HBL-1): A1 (A1=0.0001 to <1)
- CI50 growth inhibition (SU-DHL-10-epst): S (S=0.01 to <0.5)
- CI50 inhibition (SU-DHL-10-epst): S (S=0.01 to <0.5)
- Synergy Score growth inhibition (SU-DHL-10-epst): A3 (A3=>3)
- Synergy Score inhibition (SU-DHL-10-epst): A3 (A3=>3)
- CI50 growth inhibition (DOHH-2): S (S=0.01 to <0.5)
- CI50 inhibition (DOHH-2): S (S=0.01 to <0.5)
- Synergy Score growth inhibition (DOHH-2): A3 (A3=>3)
- Synergy Score inhibition (DOHH-2): A3 (A3=>3)
- CI50 growth inhibition (Jeko-1): T (T=0.5 to <0.7)
- CI50 inhibition (Jeko-1): U (U=0.7 to <1)
- Synergy Score growth inhibition (Jeko-1): A2 (A2=1 to <3)
- Synergy Score inhibition (Jeko-1): A2 (A2=1 to <3)
- CI50 growth inhibition (OCI-Ly7): S (S=0.01 to <0.5)
- CI50 inhibition (OCI-Ly7): W (W=≥1)
- Synergy Score growth inhibition (OCI-Ly7): A2 (A2=1 to <3)
- Synergy Score inhibition (OCI-Ly7): A2 (A2=1 to <3)
- CI50 growth inhibition (U-2932): S (S=0.01 to <0.5)
- Synergy Score growth inhibition (U-2932): A2 (A2=1 to <3)
- Synergy Score inhibition (U-2932): A2 (A2=1 to <3)
- CI50 growth inhibition (KARPAS-422): W (W=≥1)
- CI50 inhibition (KARPAS-422): S (S=0.01 to <0.5)
- Synergy Score growth inhibition (KARPAS-422): A2 (A2=1 to <3)
- Synergy Score inhibition (KARPAS-422): A2 (A2=1 to <3)
- CI50 growth inhibition (OCI-Ly3): U (U=0.7 to <1)
- Synergy Score growth inhibition (OCI-Ly3): A2 (A2=1 to <3)
- Synergy Score inhibition (OCI-Ly3): A1 (A1=0.0001 to <1)
- CI50 growth inhibition (RL): T (T=0.5 to <0.7)
- CI50 inhibition (RL): S (S=0.01 to <0.5)
- Synergy Score growth inhibition (RL): A2 (A2=1 to <3)
- Synergy Score inhibition (RL): A2 (A2=1 to <3)
- CI50 growth inhibition (TMD8; TMD8, 72 h): T (T=0.5 to <0.7)
- CI50 inhibition (TMD8; TMD8, 72 h): S (S=0.01 to <0.5)
- Synergy Score growth inhibition (TMD8; TMD8, 72 h): A3 (A3=>3)
- Synergy Score inhibition (TMD8; TMD8, 72 h): A3 (A3=>3)
- effect of the combination (isobologram) (TMD8; TMD8 DLBCL cell line, FIG. 1-3): synergistic effect
- CI50 inhibition (OMP-2): W (W=≥1)
- Synergy Score growth inhibition (OMP-2): A2 (A2=1 to <3)
- Synergy Score inhibition (OMP-2): A2 (A2=1 to <3)
- CI50 growth inhibition [1]: S (S=0.01 to <0.5)
- effect of the combination (isobologram) (Farage; Farage DLBCL cell line, FIG. 4-5): synergistic effect
- CI50 growth inhibition (Farage; Farage, 72 h): T (T=0.5 to <0.7)
- CI50 inhibition (Farage; Farage, 72 h): S (S=0.01 to <0.5)
- Synergy Score growth inhibition (Farage; Farage, 72 h): A3 (A3=>3)
- Synergy Score inhibition (Farage; Farage, 72 h): A3 (A3=>3)
- CI50 growth inhibition (NCI-H929): S (S=0.01 to <0.5)
- CI50 inhibition (NCI-H929): T (T=0.5 to <0.7)
- Synergy Score growth inhibition (NCI-H929): A3 (A3=>3)
- Synergy Score inhibition (NCI-H929): A2 (A2=1 to <3)
- CI50 growth inhibition (HH): S (S=0.01 to <0.5)
- CI50 inhibition (HH): S (S=0.01 to <0.5)
- Synergy Score growth inhibition (HH): A3 (A3=>3)
- Synergy Score inhibition (HH): A2 (A2=1 to <3)
- CI50 growth inhibition (Mino): T (T=0.5 to <0.7)
- CI50 inhibition (Mino): U (U=0.7 to <1)
- Synergy Score growth inhibition (Mino): A2 (A2=1 to <3)
- Synergy Score inhibition (Mino): A2 (A2=1 to <3)
- CI50 growth inhibition (KARPAS-299): U (U=0.7 to <1)
- CI50 inhibition (KARPAS-299): W (W=≥1)
- Synergy Score growth inhibition (KARPAS-299): A1 (A1=0.0001 to <1)
- Synergy Score inhibition (KARPAS-299): A1 (A1=0.0001 to <1)
- CI50 growth inhibition (WSU-NHL): T (T=0.5 to <0.7)
- CI50 inhibition (WSU-NHL): S (S=0.01 to <0.5)
- Synergy Score growth inhibition (WSU-NHL): A3 (A3=>3)
- Synergy Score inhibition (WSU-NHL): A3 (A3=>3)
- CI50 growth inhibition (RPMI-8226): U (U=0.7 to <1)
- CI50 inhibition (RPMI-8226): W (W=≥1)
- Synergy Score growth inhibition (RPMI-8226): A2 (A2=1 to <3)
- Synergy Score inhibition (RPMI-8226): A1 (A1=0.0001 to <1)
- CI50 growth inhibition (SU-DHL-4-epst): S (S=0.01 to <0.5)
- CI50 inhibition (SU-DHL-4-epst): S (S=0.01 to <0.5)
- Synergy Score growth inhibition (SU-DHL-4-epst): A3 (A3=>3)
- Synergy Score inhibition (SU-DHL-4-epst): A3 (A3=>3)
- CI50 growth inhibition (GRANTA-519): S (S=0.01 to <0.5)
- Synergy Score growth inhibition (GRANTA-519): A2 (A2=1 to <3)
- Synergy Score inhibition (GRANTA-519): A1 (A1=0.0001 to <1)
